Assay results from PubChem BioAssay (NCI).
Values joined by “and” are separate entries in the source; they are usually repeats but may differ in a detail not shown here. Equal values may be shown once.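 Dose response: 5 concentrations. Exposure: 48 h. Format: 96-well plates. Endpoint: linear interpolation; highest concentration if not reached. GI50 = concentration required for 50% inhibition of growth. TGI is the concentration that stops growth completely.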

What was measured:
Test in all cases: NCI anticancer screen, dose series, 48 h
[1] = test system: KM12 colon
[2] = test system: MALME-3M melanoma
[3] = test system: NCI-H23 lung
[4] = test system: SF-268 CNS
[5] = test system: SK-MEL-28 melanoma
[6] = test system: SNB-75 CNS
[7] = test system: LOX IMVI melanoma
[8] = test system: BT-549 breast
[9] = test system: DU-145 prostate
[10] = test system: T-47D breast

Structure (SMILES)	TGI [1]	TGI [2]	TGI [3]	TGI [4]	TGI [5]	TGI [6] [µM]	TGI [7]	GI50 [8]	TGI [8]	TGI [9] [µM]	GI50 [4]	TGI [10] [µM]	GI50 [9]	GI50 [1]	GI50 [7] [µM]	GI50 [2] [µM]	GI50 [3]	GI50 [6] [µM]	GI50 [5] [µM]	GI50 [10] [µM]
CC(=O)O[C@H]1CSC[C@@H](OC(C)=O)C1[N+](=O)[O-] (stereo partly specified)	> 100 µM	41.6 µM	> 100 µM	> 100 µM	69.4 µM	> 100	–	–	–	–	–	–	–	–	–	–	–	–	–	–
Cc1ccccc1NC(=O)C(=O)C(C(=O)c1ccccc1F)C1OC(=O)c2ccccc21 (stereo unspecified)	68.2 µM	95.1 µM	28.2 µM	62.5 µM	35.8 µM	31.8	33.6 µM	–	–	–	–	–	–	–	–	–	–	–	–	–
CCCCCCNC(=O)CCN(C(=O)O)S(=O)(=O)c1ccc(NC(=O)c2ccccc2)cc1	> 100 µM	> 100 µM	> 100 µM	> 100 µM	> 100 µM	> 100	> 62.2 µM	–	–	–	–	–	–	–	–	–	–	–	–	–
O=C1OC(c2ccccc2)=N/C1=C\c1ccccc1	> 100 µM and 62.2 µM	–	> 100 µM	82.5 µM and > 100 µM	> 100 µM	> 100	51.8 µM and 31.6 µM	68.9 µM and 26.8 µM	> 100 µM	> 100	14.5 µM and 34.8 µM	> 100	–	–	–	–	–	–	–	–
C=C1C(=O)C23C(O)CC4C(C)(C)CCC(O)C4(C)C2CC(OC(C)=O)C1[C@H]3O (stereo partly specified)	31.1 µM	9.42 µM	8.38 µM	22.1 µM	8.19 µM	22.7	15.8 µM	–	–	–	–	–	–	–	–	–	–	–	–	–
Nc1ncc(CN2CCCC2)c(-c2ccccc2O)n1	> 750 µM	> 750 µM	> 750 µM	> 750 µM	> 750 µM	> 750	> 750 µM	–	–	–	–	–	–	–	–	–	–	–	–	–
CN(C(=O)C12C3C4C1C1C2C3C41C#N)C(C)(C)C (stereo unspecified)	> 100 µM	> 100 µM	> 100 µM	> 100 µM	> 100 µM	> 100	> 100 µM	–	–	–	–	–	–	–	–	–	–	–	–	–
N/N=C1/C(=O)N(c2ccc(Cl)cc2)C(=O)C(=O)C1c1nc2ccccc2s1 (stereo unspecified)	> 100 µM	> 100 µM	> 100 µM	> 100 µM	> 100 µM	> 100	> 100 µM	–	–	–	–	–	–	–	–	–	–	–	–	–
CCCCCCCCCC(=O)Oc1ccc(/C(=C(/C)c2ccccc2)c2ccc(OCCN3CCCC3)cc2)cc1	16.7 µM	15.7 µM	16.1 µM	17.2 µM	–	13.5	14.8 µM	8.22 µM	16.8 µM	14.8	8.16 µM	–	8 µM	8.78 µM	8.02	7.76	7.74 µM	6.56	–	–
N#Cc1sc2nc3c(c(-c4ccccc4)c2c1N)CCCC3	> 100 µM	> 100 µM	> 100 µM	–	> 100 µM	–	> 100 µM	–	–	–	–	–	–	–	–	–	–	–	–	–
CN(C)NC(=O)NC12CC3CC(CC(C3)C1)C2	> 100 µM	–	> 100 µM	> 100 µM	> 10 µM	> 100	> 100 µM	–	–	–	–	–	–	–	–	–	–	–	–	–
CC(C)(C)n1cc(-c2ccnc(NCCCNS(=O)(=O)c3cccc4ccccc34)c2)c(-c2cccc(O)c2)n1	5.42 µM	3.18 µM	3.84 µM	8.02 µM	3.24 µM	5.48	3.28 µM	–	–	7.45	2.77 µM	6.18	2.65 µM	2.34 µM	1.73	1.51	1.78 µM	1.88	1.67	2.22
COc1ccc(/C=C\c2cc(OC)c(OC)c(OC)c2)cc1NC(=O)/C=C/c1cc(OC)c(OC)c(OC)c1	> 100 µM	–	> 100 µM	> 100 µM	> 100 µM	–	> 100 µM	7.96 µM	77.4 µM	> 100	> 100 µM	> 100	5.01 µM	4.67 µM	4.9	–	6.96 µM	–	3.42	5.01
COc1cc([C@@H]2c3cc4c(cc3[C@@H](OC3OC5COC(C)OC5C(O)C3O)[C@H]3COC(=O)[C@H]23)OCO4)cc(OC)c1O (stereo partly specified)	27.1 µM and 23.9 µM and 92.2 µM	72 µM [middle of 4 runs]	–	–	125 µM and 363 µM and 198 µM	–	> 81.1 µM and 11.6 µM and 42.9 µM	1.83 µM	41.2 µM and 35 µM and 6.05 µM	–	–	5.18	2.3 µM and 1.67 µM	–	–	–	–	–	–	0.516
Cc1nc2ccccc2c(=O)n1/N=C(\N=Nc1cc(Cl)ccc1Cl)c1ccc(N(C)C)cc1	–	–	> 100 µM	> 100 µM	> 100 µM	–	> 100 µM	–	–	–	–	–	–	–	–	–	–	–	–	–
COc1cc2c3c(c4cc(OC)c(OC)cc4c2cc1OC)CN1CCC[C@H]1C3	1.22 µM	–	0.653 µM and 3.4 µM	–	–	0.0663	0.245 µM and 1.46 µM	–	0.0849 µM and 0.657 µM	0.187	0.0142 µM	0.33	0.0205 µM	0.0452 µM and < 0.01 µM	–	–	0.0406 µM and < 0.0123 µM	0.0084	–	0.0192
CCOC(=O)C(=O)CC(=O)C(Br)C(Br)c1ccc(Cl)cc1 (stereo unspecified)	> 100 µM	> 100 µM	96.1 µM	> 100 µM	72.3 µM	> 100	78.1 µM	–	–	–	–	–	–	–	–	–	–	–	–	–
Nc1nc(SCC#CCCl)c2[nH]cnc2n1	18.6 µM	24 µM	20.1 µM	18.6 µM	27.2 µM	17.5	11.8 µM	–	–	15.9	3.93 µM	21.1	4.39 µM	6.14 µM	2.97	4.81	4.46 µM	4.23	11.7	5.26
CSCSCC(CO)NC(=O)/C=C/c1c(C)[nH]c(=O)[nH]c1=O (stereo unspecified)	> 100 µM	> 100 µM	> 100 µM	> 100 µM	> 100 µM	> 100	> 100 µM	–	–	–	–	–	–	–	–	–	–	–	–	–
NN=C1/C(=C\c2ccccc2)CCC/C1=C/c1ccccc1	> 100 µM	81.1 µM	> 100 µM	> 100 µM	> 100 µM	> 100	54.3 µM	–	–	–	–	–	–	–	–	–	–	–	–	–
CC(C)(c1ccc(C=O)o1)c1ccc(C(C)(C)c2ccc(C=O)o2)o1	> 100 µM	> 100 µM	> 100 µM	> 100 µM	> 100 µM	–	> 100 µM	–	–	–	–	–	–	–	–	–	–	–	–	–
